{
  "source": "paper PMC10484922",
  "about": "“Discovery of a selective and biologically active low-molecular weight antagonist of human interleukin-1β” (Nature Communications, 2023)",
  "key": {"[1]": {"tested_on": "normal human dermal fibroblasts stimulated with hIL-1β", "test": "Human fibroblast IL-6 release assay, hIL-1β stimulated", "format": "cell-based", "design": "IL-6, average / inhibition, replicates of EXP1, EXP2, EXP3 / inhibition, Mean / IL-1beta (mean, SD): mean readout (IL-6 release): unit not given here", "conditions": "for % Inhibition (EXP1-EXP3, single experiments) / % Inhibition, Mean: Figure 3b; for % Inhibition, Mean: mean of 3 experiments; for Mean OD (OD 450nm) / IL-1beta (mean, SD): mean readout (IL-6 release): Figure 3c; for Mean OD (OD 450nm): compound 1 nM; for IL-1beta (mean, SD): mean readout (IL-6 release): compound @ 1nM; for IL-6, average / IL-6, curve fit: per experiment; for IC50: Homo sapiens, Fibroblast", "method": "We used HEK-Blue™ IL-1β cells that respond specifically to IL-1 (# hkb-il1b, InvivoGen). These cells can detect IL-1α and IL-1β, as these cytokines bind to the same receptor, IL-1R1. They express a Seap reporter gene under the control of the IFN-β minimal promoter fused to five NF-kappaB and five AP-1 binding sites. Thirty microliters (300,000 cells/ml) per well of a 384-well plate were plated overnight. Cells were then stimulated with graded concentrations of cytokines (hIL-1α or hIL-1β) in the absence or presence of canakinumab (Ilaris®, ILARI LYVI 150MG 22GLW.012, batch U003 0409)[22], anakinra (Kineret®, 100 mg/0.67 ml injectable solution, Sobi)[23], or compound (S)-2 (compounds were pre-mixed for 1 h with the cytokine prior to addition to cells) and further incubated overnight before assessment of Seap activity.\nNormal human dermal fibroblasts (NHDF) from Clonetics^TM (LONZA, Cat # CC-2509 (NHDF-Neo), Lot # 0000234242, used at passage ≤14) were seeded at a density of 5000 cells/well in 100 μL of culture medium using 96-well plates (flat bottom, TCT). Treatment with cytokines/compounds was performed as described above. Cells were incubated for another 6 h and were subsequently spun down (320g/3 min). IL-6 was measured in the supernatant by ELISA (BioLegend, # 430503) or HTRF (Cisbio, #62HIL06PEH)."}, "IL-1α": {"target": "T1, IL-1α (Homo sapiens, UniProt P01583)", "T1 sequence (P01583 113-271)": "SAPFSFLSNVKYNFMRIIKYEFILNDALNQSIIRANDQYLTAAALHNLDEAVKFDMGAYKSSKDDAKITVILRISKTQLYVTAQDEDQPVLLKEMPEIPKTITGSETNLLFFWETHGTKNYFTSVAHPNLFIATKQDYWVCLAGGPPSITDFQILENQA", "test": "TR-FRET IL-1α/hIL-1R1 receptor displacement assay", "format": "biochemical", "conditions": "read-out: TR-FRET IL-1α IC50", "method": "After 1 h incubation at room temperature, hIL-1R1 (1–332; Alexa 647 labeled; 50 nM final concentration) and anti-His-Europium W1024 (Perkin Elmer; Cat.No. AD0401, 1 nM final concentration) were added to a final volume of 10 μl per well. After 1 h of incubation at room temperature, time-resolved fluorescence was measured at λexc = 320 ± 20 nm, λem = 620 ± 25 nm/665 ± 25 nm using a Pherastar FSX plate reader. All experiments were run in triplicates. The data provided a typical saturation-binding curve, and the IC50 values were calculated by fitting the results to the Hill equation using Prism 7.0 and the in-house software Helios."}, "IL-1β": {"target": "IL-1β (Homo sapiens, UniProt P01584)", "sequence (P01584 117-269)": "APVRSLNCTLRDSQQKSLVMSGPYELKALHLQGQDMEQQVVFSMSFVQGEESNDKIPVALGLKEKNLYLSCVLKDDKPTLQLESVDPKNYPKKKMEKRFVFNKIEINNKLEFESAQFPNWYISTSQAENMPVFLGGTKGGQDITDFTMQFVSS", "test": "protein-observed 1H-13C-HMQC NMR binding (I/Io of Leu60 Cδ1H3)", "design": "Mature hIL-1β was expressed in Escherichia coli; made in house; host or cells: Escherichia coli BL21 (DE3), pET17b", "conditions": "hIL-1β 50 µM, 500 µM compound", "method": "^1H–^13C- and ^1H–^15N-HMQC spectra were recorded on Bruker AVANCE 600 MHz and 800 MHz spectrometers equipped with TXI-cryocooled probeheads. In ligand binding experiments, protein concentrations were typically 50 μM in PBS, pH 7.4. Backbone assignments of hIL-1β in the ligand-bound state and unliganded state were obtained by a combination of a 3D triple resonance experiment HNCACB and a ^15N-edited NOESY spectrum, which were processed using TOPSPIN 3.2 and analyzed using CcpNmr AnalysisAssign 3.1.0[46]. ^15N-CEST experiments were run at weak B1 radiofrequency fields of 25 and 12.5 Hz on a Bruker AVANCE 800 MHz spectrometer with 113 increments and a total sweep width of 28 ppm in the pseudo-3D dimension. Peak intensities were extracted by fitting pseudo-Voigt lineshape models using peakipy (https://github.com/j-brady/peakipy). Fitted peak intensities were subsequently used to generate CEST profiles, and exchange parameters were fitted using ChemEx (https://github.com/gbouvignies/ChemEx).\nSupplementary Figure 2. 13C-NMR and 19F-NMR reporter assays to monitor early\n13C-HMQC spectra of hIL-1b (50 µM) were acquired in the presence (red) and absence (blue) of 500\nµM compound and rows were extracted at the w1-frequency of the peak corresponding to Leu60 […]"}, "[2]": {"conditions": "Canakinumab concentration 0.00457247 (unit not given)"}, "[3]": {"conditions": "Canakinumab concentration 0.0137174 (unit not given)"}, "[4]": {"conditions": "Canakinumab concentration 0.0411523 (unit not given)"}, "[5]": {"conditions": "Canakinumab concentration 0.123457 (unit not given)"}, "[6]": {"conditions": "Canakinumab concentration 0.37 (unit not given)"}, "[7]": {"conditions": "Canakinumab concentration 1.11 (unit not given)"}, "[8]": {"conditions": "Canakinumab concentration 3.33 (unit not given)"}},
  "note": "Several values for one entry are separate records, joined by “and”; a condition that tells them apart may be missing. Equal values may be shown once. Entries after “also recorded” stand apart in the source; their conditions may differ. Read-outs that look alike come from different tables or passages of the source.",
  "data": [
    {"molecule": "canakinumab: anti-hIL-1β antibody [reference compound]", "values": [
      {"measurement": "block of hIL-1β driven IL-6 release", "setting": "[1]", "result": "fully blocked; also recorded: selectively inhibited IL-1β driven activity"},
      {"measurement": "% Inhibition (EXP1-EXP3, single experiments)", "setting": "[1]; [2]", "result": "15.5% and 11.1% and 14.6%"},
      {"measurement": "% Inhibition, Mean", "setting": "[1]; [2]", "result": 13.7, "unit": "%"},
      {"measurement": "% Inhibition (EXP1-EXP3, single experiments)", "setting": "[1]; [3]", "result": "23.7% and 27.7% and 26.5%"},
      {"measurement": "% Inhibition, Mean", "setting": "[1]; [3]", "result": 26, "unit": "%"},
      {"measurement": "% Inhibition (EXP1-EXP3, single experiments)", "setting": "[1]; [4]", "result": "29% and 29.6% and 31.5%"},
      {"measurement": "% Inhibition, Mean", "setting": "[1]; [4]", "result": 30, "unit": "%"},
      {"measurement": "% Inhibition (EXP1-EXP3, single experiments)", "setting": "[1]; [5]", "result": "46.1% and 41.8% and 58.9%"},
      {"measurement": "% Inhibition, Mean", "setting": "[1]; [5]", "result": 48.9, "unit": "%"},
      {"measurement": "% Inhibition (EXP1-EXP3, single experiments)", "setting": "[1]; [6]", "result": "71.6% and 66.1% and 70.6%"},
      {"measurement": "% Inhibition, Mean", "setting": "[1]; [6]", "result": 69.4, "unit": "%"},
      {"measurement": "% Inhibition (EXP1-EXP3, single experiments)", "setting": "[1]; [7]", "result": "91.2% and 93.8% and 92.3%"},
      {"measurement": "% Inhibition, Mean", "setting": "[1]; [7]", "result": 92.4, "unit": "%"},
      {"measurement": "% Inhibition (EXP1-EXP3, single experiments)", "setting": "[1]; [8]", "result": "99.3% and 99.2% and 98.7%"},
      {"measurement": "% Inhibition, Mean", "setting": "[1]; [8]", "result": 99, "unit": "%"},
      {"measurement": "Mean OD (OD 450nm)", "setting": "[1]; hu IL-1b 0 pg/mL", "result": 0.033},
      {"measurement": "IL-1beta (mean, SD): mean readout (IL-6 release)", "setting": "[1]; hu IL-1b 0 pg/mL", "result": 0},
      {"measurement": "Mean OD (OD 450nm)", "setting": "[1]; hu IL-1b 40 pg/mL", "result": 0.046},
      {"measurement": "IL-1beta (mean, SD): mean readout (IL-6 release)", "setting": "[1]; hu IL-1b 40 pg/mL", "result": 0},
      {"measurement": "Mean OD (OD 450nm)", "setting": "[1]; hu IL-1b 80 pg/mL", "result": 0.099},
      {"measurement": "IL-1beta (mean, SD): mean readout (IL-6 release)", "setting": "[1]; hu IL-1b 80 pg/mL", "result": 0},
      {"measurement": "Mean OD (OD 450nm)", "setting": "[1]; hu IL-1b 120 pg/mL", "result": 0.15},
      {"measurement": "IL-1beta (mean, SD): mean readout (IL-6 release)", "setting": "[1]; hu IL-1b 120 pg/mL", "result": 353.7},
      {"measurement": "Mean OD (OD 450nm)", "setting": "[1]; hu IL-1b 160 pg/mL", "result": 0.229},
      {"measurement": "IL-1beta (mean, SD): mean readout (IL-6 release)", "setting": "[1]; hu IL-1b 160 pg/mL", "result": 936.8},
      {"measurement": "Mean OD (OD 450nm)", "setting": "[1]; hu IL-1b 200 pg/mL", "result": 0.252},
      {"measurement": "IL-1beta (mean, SD): mean readout (IL-6 release)", "setting": "[1]; hu IL-1b 200 pg/mL", "result": 1110.8}
    ]},
    {"molecule": "Cc1ccc2c(c1)NC(=O)C2(O)c1cc(-c2ccc(C(=O)O)cc2)ccc1O", "note": "(stereo not drawn) [Compound 10]", "values": [
      {"measurement": "IC50", "setting": "IL-1α", "result": "> 200", "unit": "µM"},
      {"measurement": "IL-6, average", "setting": "[1]; 0.3 uM", "result": 4.183},
      {"measurement": "IL-6, curve fit", "setting": "[1]; 0.3 uM", "result": "2.28E-12"},
      {"measurement": "IL-6, average", "setting": "[1]; 1.2 uM", "result": 7.793},
      {"measurement": "IL-6, curve fit", "setting": "[1]; 1.2 uM", "result": "3.34E-09"},
      {"measurement": "IL-6, average", "setting": "[1]; 3 uM", "result": 7.203},
      {"measurement": "IL-6, curve fit", "setting": "[1]; 3 uM", "result": "4.25E-07"},
      {"measurement": "IL-6, average", "setting": "[1]; 12 uM", "result": 4.254},
      {"measurement": "IL-6, curve fit", "setting": "[1]; 12 uM", "result": 0.0006137},
      {"measurement": "IL-6, average", "setting": "[1]; 33 uM (Cpd 10/11 series)", "result": 6.569},
      {"measurement": "IL-6, curve fit", "setting": "[1]; 33 uM (Cpd 10/11 series)", "result": 0.1292},
      {"measurement": "IL-6, average", "setting": "[1]; 99 uM", "result": 29.3257},
      {"measurement": "IL-6, curve fit", "setting": "[1]; 99 uM", "result": 29.6479},
      {"measurement": "IL-6, average", "setting": "[1]; 300 uM", "result": 100.311},
      {"measurement": "IL-6, curve fit", "setting": "[1]; 300 uM", "result": 99.3118},
      {"measurement": "IC50", "setting": "[1]; 6 h, human dermal fibroblasts, hIL-1β, 6 h, read-out: IL-6 release IC50", "result": 117, "unit": "µM"},
      {"measurement": "IC50", "setting": "[1]; source data, read-out: IL-6 IC50, individual experiments", "result": 117, "unit": "µM"},
      {"measurement": "I/Io (ratio of peak intensities of Leu60 Cδ1H3 in 1H-13C-HMQC spectra in presence and absence of ligand)", "setting": "IL-1β", "result": "0.1 (N = 1)"}
    ]}
  ]
}
